Measured values from patent US9163021B2, “Pyrrolo[3,2-c]pyridine tropomyosin-related kinase inhibitors” (Pfizer Limited, priority 2012, dated 2015).

Target: TRKA (Homo sapiens (Human), UniProt P04629)
Assay: Isolated TRK enzyme assay (HTRF KinEASE-TK), PV3144 TrkA enzyme assay
Assay type: biochemical
Conditions: arithmetic mean where more than one reading
Method in brief: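 His-tagged TrkA cytoplasmic domain preactivated with ATP 20 min, then with compound 20 min at room temperature before 1 µM final biotin-TK substrate; HTRF 665/620 nm read.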

Chain of TRKA (P04629 441-796): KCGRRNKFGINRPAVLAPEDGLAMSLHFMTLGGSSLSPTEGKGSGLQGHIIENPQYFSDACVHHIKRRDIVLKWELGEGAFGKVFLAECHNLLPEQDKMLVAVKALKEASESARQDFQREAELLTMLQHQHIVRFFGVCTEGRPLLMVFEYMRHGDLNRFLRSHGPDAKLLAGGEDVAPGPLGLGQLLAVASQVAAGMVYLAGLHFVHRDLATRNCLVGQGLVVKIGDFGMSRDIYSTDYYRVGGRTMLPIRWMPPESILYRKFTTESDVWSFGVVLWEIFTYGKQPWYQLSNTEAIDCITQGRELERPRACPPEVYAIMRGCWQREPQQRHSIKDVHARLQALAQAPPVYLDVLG

Row | Compound | IC50 [nM]
1 | CC(CO)n1cc(C(=O)c2cncc(NC(=O)Cn3cc(C(F)(F)F)nn3)c2)c2cncc(F)c21 (single isomer, unassigned) [Example 220, N-(5-{[7-fluoro-1-(1-hydroxypropan-2-yl)-1H-pyrrolo[3,2-c]pyridin-3-yl]carbonyl}pyridin-3-yl)-2-[4-(trifluoromethyl)-1H-1,2,3-triazol-1-yl]acetamide] | 160
2 | Cc1nc(C)c(CC(=O)Nc2cc(C(=O)c3cn(C(C)C)c4ccncc34)ccn2)s1 [Example 167, 2-(2,4-dimethyl-1,3-thiazol-5-yl)-N-(4-{[1-(propan-2-yl)-1H-pyrrolo[3,2-c]pyridin-3-yl]carbonyl}pyridin-2-yl)acetamide] | 181
3 | CC(C)n1cc(C(=O)c2ccnc(NC(=O)Cc3nnn[nH]3)c2)c2cnccc21 [Example 187] | 9800
4 | CC(C)n1cc(C(=O)c2cncc(NC(=O)Cc3ccccc3Cl)c2)c2cnccc21 [Example 100, 2-(2-chlorophenyl)-N-(5-{[1-(propan-2-yl)-1H-pyrrolo[3,2-c]pyridin-3-yl]carbonyl}pyridin-3-yl)acetamide] | 2370
5 | CC(CO)n1cc(C(=O)c2cncc(NC(=O)Cc3ccc(Cl)cn3)c2)c2cncc(F)c21 (single isomer, unassigned) [Example 211, 2-(5-chloropyridin-2-yl)-N-(5-{[7-fluoro-1-(1-hydroxypropan-2-yl)-1H-pyrrolo[3,2-c]pyridin-3-yl]carbonyl}pyridin-3-yl)acetamide] | 93.3
6 | CC(C)n1ncc(CC(=O)Nc2cncc(C(=O)c3cn(C(C)CO)c4ccncc34)c2)c1C(F)(F)F (single isomer, unassigned) [Example 71, N-(5-{[1-(1-hydroxypropan-2-yl)-1H-pyrrolo[3,2-c]pyridin-3-yl]carbonyl}pyridin-3-yl)-2-[1-(propan-2-yl)-5-(trifluoromethyl)-1H-pyrazol-4-yl]acetamide] | 149
7 | COc1ccc(CC(=O)Nc2cncc(C(=O)c3cn(C(C)C)c4ccncc34)c2)cc1 [Example 128, 2-(4-methoxyphenyl)-N-(5-{[1-(propan-2-yl)-1H-pyrrolo[3,2-c]pyridin-3-yl]carbonyl}pyridin-3-yl)acetamide] | 147
8 | CC(CO)n1cc(C(=O)c2cncc(NC(=O)Cc3ccc(F)cn3)c2)c2cnccc21 (single isomer, unassigned) [Example 74, 2-(5-fluoropyridin-2-yl)-N-(5-{[1-(1-hydroxypropan-2-yl)-1H-pyrrolo[3,2-c]pyridin-3-yl]carbonyl}pyridin-3-yl)acetamide] | 233
9 | CC(C)n1cc(C(=O)c2cncc(NC(=O)Cc3ccccc3)c2)c2cnccc21 [Example 130, 2-phenyl-N-(5-{[1-(propan-2-yl)-1H-pyrrolo[3,2-c]pyridin-3-yl]carbonyl}pyridin-3-yl)acetamide] | 161
10 | O=C(Cc1ccc(F)cn1)Nc1cc(C(=O)c2cn(C3COC3)c3ccncc23)ccn1 [Example 196, 2-(5-fluoropyridin-2-yl)-N-(4-{[1-(oxetan-3-yl)-1H-pyrrolo[3,2-c]pyridin-3-yl]carbonyl}pyridin-2-yl)acetamide] | 1280
11 | CC(CO)n1cc(C(=O)c2cncc(NC(=O)Cc3ccc(C(F)(F)F)cc3)c2)c2cncc(F)c21 (single isomer, unassigned) [Example 224, N-(5-{[7-fluoro-1-(1-hydroxypropan-2-yl)-1H-pyrrolo[3,2-c]pyridin-3-yl]carbonyl}pyridin-3-yl)-2-[4-(trifluoromethyl)phenyl]acetamide] | 15.4
12 | Cc1ccn(CC(=O)Nc2cncc(C(=O)c3cn(C(C)C)c4ccncc34)c2)n1 [Example 134, 2-(3-methyl-1H-pyrazol-1-yl)-N-(5-{[1-(propan-2-yl)-1H-pyrrolo[3,2-c]pyridin-3-yl]carbonyl}pyridin-3-yl)acetamide] | 284
13 | CC(C)n1ncc(CC(=O)Nc2cc(C(=O)c3cn(C4COC4)c4ccncc34)ccn2)c1C(F)(F)F [Example 201] | 314
14 | COCCn1nc(C(C)(C)C)nc1CC(=O)Nc1cncc(C(=O)c2cn(C(C)C)c3ccncc23)c1 [Example 44, 2-[3-tert-butyl-1-(2-methoxyethyl)-1H-1,2,4-triazol-5-yl]-N-(5-{[1-(propan-2-yl)-1H-pyrrolo[3,2-c]pyridin-3-yl]carbonyl}pyridin-3-yl)acetamide] | 531
15 | CC(CO)n1cc(C(=O)c2cncc(NC(=O)Cc3cccc(C(F)(F)F)c3)c2)c2cnccc21 (single isomer, unassigned) [Example 34, N-(5-{[1-(1-hydroxypropan-2-yl)-1H-pyrrolo[3,2-c]pyridin-3-yl]carbonyl}pyridin-3-yl)-2-[3-(trifluoromethyl)phenyl]acetamide] | 17.1

Further compounds by falling IC50, results first:

Row | IC50 [nM] | Compound
16 | 93.1 | N-(5-{[7-fluoro-1-(1-hydroxypropan-2-yl)-1H-pyrrolo[3,2-c]pyridin-3-yl]carbonyl}pyridin-3-yl)-2-[4-(trifluoromethyl)-1H-1,2,3-triazol-1-yl]acetamide [Example 214]
17 | 89.7 | CC(C)n1cc(C(=O)c2cc(NC(=O)Cn3ccc(C(F)(F)F)n3)ccn2)c2cnccc21 [Example 27, N-(2-{[1-(propan-2-yl)-1H-pyrrolo[3,2-c]pyridin-3-yl]carbonyl}pyridin-4-yl)-2[3-(trifluoromethyl)-1H-pyrazol-1-yl]acetamide]
18 | 71.3 | 2-(2,5-dicyclopropyl-1,3-oxazol-4-yl)-N-(4-{[1-(oxetan-3-yl)-1H-pyrrolo[3,2-c]pyridin-3-yl]carbonyl}pyridin-2-yl)acetamide [Example 203]
19 | 56 | Cc1nc(CC(=O)Nc2cc(C(=O)c3cn(C(C)C)c4ccncc34)ccn2)c(C)s1 [Example 162, 2-(2,5-dimethyl-1,3-thiazol-4-yl)-N-(4-{[1-(propan-2-yl)-1H-pyrrolo[3,2-c]pyridin-3-yl]carbonyl}pyridin-2-yl)acetamide]
20 | 45.3 | CC(C)n1cc(C(=O)c2ccnc(NC(=O)Cc3ccc(C#N)cn3)c2)c2cnccc21 [Example 138, 2(5-cyanopyridin-2-yl)-N-(4-{[1-(propan-2-yl)-1H-pyrrolo[3,2-c]pyridin-3-yl]carbonyl}pyridin-2-yl)acetamide]
21 | 44.9 | CC(CO)n1cc(C(=O)c2cncc(NC(=O)Cn3ccc(C(F)(F)F)n3)c2)c2cnccc21 (stereo not shown) [Example 75, N-(5-{[1-(1-hydroxypropan-2-yl)-1H-pyrrolo[3,2-c]pyridin-3-yl]carbonyl}pyridin-3-yl)-2-[3-(trifluoromethyl)-1H-pyrazol-1-yl]acetamide]
22 | 41.8 | CC(C)n1cc(C(=O)c2cncc(NC(=O)Cn3cc(Cl)cn3)c2)c2cnccc21 [Example 127, 2-(4-chloro-1H-pyrazol-1-yl)-N-(5-{[1-(propan-2-yl)-1H-pyrrolo[3,2-c]pyridin-3-yl]carbonyl}pyridin-3-yl)acetamide]
23 | 36.1 | CC(C)n1cc(C(=O)c2ccnc(NC(=O)Cc3nc(C(C)(C)C)nn3C)c2)c2cnccc21 [Example 171, 2(3-tert-butyl-1-methyl-1H-1,2,4-triazol-5-yl)-N-(4-{[1-(propan-2-yl)-1H-pyrrolo[3,2-c]pyridin-3-yl]carbonyl}pyridin-2-yl)acetamide]
24 | 33.8 | COc1ncc(C(=O)c2cn(C(C)C)c3ccncc23)cc1NC(=O)Cn1nc(C(F)(F)F)cc1C [Example 48, N-(2-methoxy-5-{[1-(propan-2-yl)-1H-pyrrolo[3,2-c]pyridin-3-yl]carbonyl}pyridin-3-yl)-2-[5-methyl-3-(trifluoromethyl)-1H-pyrazol-1-yl]acetamide]
25 | 28.6 | CC(C)n1cc(C(=O)c2cncc(NC(=O)Cc3cccc(Cl)c3)c2)c2cnccc21 [Example 126, 2-(3-chlorophenyl)-N-(5-{[1-(propan-2-yl)-1H-pyrrolo[3,2-c]pyridin-3-yl]carbonyl}pyridin-3-yl)acetamide]
26 | 20.2 | O=C(Cc1ccc(C(F)(F)F)cc1)Nc1cc(C(=O)c2cn(CCO)c3ccncc23)ccn1 [Example 141, N-(4-{[1-(2-hydroxyethyl)-1H-pyrrolo[3,2-c]pyridin-3-yl]carbonyl}pyridin-2-yl)-2-[4-(trifluoromethyl)phenyl]acetamide]
27 | 18.5 | Cc1cc(C(F)(F)F)nn1CC(=O)Nc1cncc(C(=O)c2cn(C(C)CO)c3c(F)cncc23)c1 (single isomer, unassigned) [Example 228, N-(5-{[7-fluoro-1-(1-hydroxypropan-2-yl)-1H-pyrrolo[3,2-c]pyridin-3-yl]carbonyl}pyridin-3-yl)-2-[5-methyl-3-(trifluoromethyl)-1H-pyrazol-1-yl]acetamide]
28 | 15.2 | CC(CO)n1cc(C(=O)c2cncc(NC(=O)Cn3cc(C(F)(F)F)cn3)c2)c2cncc(F)c21 (single isomer, unassigned) [Example 219, N-(5-{[7-fluoro-1-(1-hydroxypropan-2-yl)-1H-pyrrolo[3,2-c]pyridin-3-yl]carbonyl}pyridin-3-yl)-2-[4-(trifluoromethyl)-1H-pyrazol-1-yl]acetamide]
29 | 12.8 | CC(C)(CO)n1cc(C(=O)c2cc(NC(=O)Cc3ccc(C(F)(F)F)cc3)ccn2)c2cnccc21 [Example 231, N-(2-{[1-(1-hydroxy-2-methylpropan-2-yl)-1H-pyrrolo[3,2-c]pyridin-3-yl]carbonyl}pyridin-4-yl)-2-[4-(trifluoromethyl)phenyl]acetamide]
30 | 6.61 | CC(C)(CO)n1cc(C(=O)c2cncc(NC(=O)Cc3ccc(C(F)(F)F)cc3)c2)c2cncc(F)c21 [Example 7, N-{5-[7-Fluoro-1-(2-hydroxy-1,1-dimethyl-ethyl)-1H-pyrrolo[3,2-c]pyridine-3-carbonyl]-pyridin-3-yl}-2-(4-trifluoromethyl-phenyl)-acetamide]
31 | 5.68 | CC(C)n1cc(C(=O)c2ccnc(NC(=O)Cc3ccc(Cl)c(Cl)c3)c2)c2cnccc21 [Example 165, 2-(3,4-dichlorophenyl)-N-(4-{[1-(propan-2-yl)-1H-pyrrolo[3,2-c]pyridin-3-yl]carbonyl}pyridin-2-yl)acetamide]
